The source of these data is US20050054629A1, “Compounds and methods of treating cell proliferative diseases” (priority 2002, published 2005).

Each structure is given as a SMILES string. Read-outs that look alike come from different tables or passages of the source.

One may read the melting point as the temperature, or range, at which the solid turns liquid.

In one series the test system is H460 lung carcinoma. Put plainly: Cytotoxicity assay (MTT), 6 days. In kind it is cell-based. As to conditions: Homo sapiens, NCI-H460, 144 h, 6 days of treatment, read-out: Toxicity 6d (IC 50, μM) H460. An excerpt: (§1) Four human tumoral cell lines, namely HCT116 colon adenocarcinoma, H460 lung carcinoma, MCF-7 and MDA-MB-231 breast carcinoma cell lines, and three immortalized but non tumorigenic cell lines, namely NIH3T3 mouse fibroblasts and human breast-derived MCF10-A and MRC-5 were purchased at ATCC and cultured according to their recommendations. In order to determine the cytotoxicity associated with one compound, a microculture tetrazolium assay (MTT), as described by Carmichael et al (Cancer Res, 1996) with modifications, was used. Briefly, 5.10^3 or 2.10^4 cells were seeded per well in 24-well plates 24 hours before drug addition. Cells were treated with 0, 1, 10, 17.5, 25 and 50 μM of compound solubilized in DMSO, adjusting the total volume of DMSO (Dimethylsulfoxide) to 1%. Forty-eight hours or 6 days after treatment, the medium was replaced by PBS containing 0.5 mg/ml MTT (Sigma) and cells were incubated for 3 more hours at 37° C. before solubilization of formazan crystals in 100% DMSO. Absorbance was measured using a spectrophotometer at a wavelength of 550 nm. Cell surviving fraction and 50% inhibitory concentration were calculated. All assays were performed in triplicate.

For a further series, the system named is MCF-7 breast carcinoma. Kind of series: Cytotoxicity assay (MTT), 6 days. As to conditions: Homo sapiens, MCF7, 144 h, 6 days of treatment, read-out: Toxicity 6d (IC 50, μM) MCF7. In kind it is cell-based.
Description: as §1

Series [1] relates to MDA-MB-231 breast carcinoma. Kind of series: Cytotoxicity assay (MTT), 6 days. The note with it: Homo sapiens, MDA-MB-231, 144 h, 6 days of treatment, read-out: Toxicity 6d (IC 50, μM) MDA231. Format: cell-based.
Description: as §1

For a further series, the system named is NIH3T3 mouse fibroblasts. Kind of series: Cytotoxicity assay (MTT), 6 days. The note with it: NIH3T3, 144 h, 6 days of treatment, read-out: Toxicity 6d (IC 50, μM) NIH3T3. In kind it is cell-based.
Description: as §1

The subject of series [2] is HCT116 colon adenocarcinoma. Kind of series: Cytotoxicity assay (MTT), 6 days. Format: cell-based, human. As to conditions: 6 days of treatment, read-out: Toxicity 6d (IC 50, μM) HCT116.
Description: as §1

The test system of the next series is HCT116 cells. Kind of series: Anchorage-independent growth assay (soft agar / Matrigel). Format: cell-based, human. The note with it: Homo sapiens, HCT-116, 168 h; HCT116, 3-dimensional growth, 1 week. As to the method: In order to evaluate the effect of the compounds on the capacity of tumor cells to grow without anchorage, HCT116 cells were seeded either in agar or in Matrigel (BD, France). For 3D growth experiment in soft agar in 24-well plates, 5.10^3 HCT116 cells were resuspended in 250 μl of complete medium containing 0.3% soft-agar (Difco) and different concentrations of compound (0.1, 1, 10, 17.5, 25 and 50 μM). Cells were then poured on a solidified layer of medium containing 0.5% of soft-agar plus the compound at the same concentration than in the upper layer. Cells were incubated at 37° C. for 1 week before they were analysed using a phase contrast microscope (Nikon). For 3D growth experiment in Matrigel, 10^4 HCT116 cells were resuspended in 300 μl of complete medium containing 5 mg/ml Matrigel (BD, France) and different concentrations of compound (0.1, 1, 10, 17.5, 25 and 50 μM), and poured in 24-well plates. After solidification at 37° C. for 15 min., complete medium containing the compound was added to each well. Cells were incubated for 1 week before they were collected using Matrisperse (BD, France) according to the manufacturer's instructions. After recovery, alive cells were counted with trypan blue exclusion.

Another series relates to MCF10-A. Put plainly: Cytotoxicity assay (MTT), 6 days. Format: cell-based. As to conditions: Homo sapiens, MCF-10A, 144 h, 6 days of treatment, read-out: Toxicity 6d (IC 50, μM) MCF10-A.
Description: as §1

The subject of a further series is Ras. Kind of series: Ras-dependant signaling pathway analysis (reporter system). Format: cell-based. Further details: key: −: no effect of the compound was observed; +: an effect of the compound was observed. As to the method:
(§2) The impact of the compounds on Ras and Rac signaling pathways was analysed with two reporter systems described by Imler (Nature 1988) and Lin (Science, 1995) respectively on one hand, and by a colony formation assay in the presence of constitutively activated Ras (RasV12) and Rac (RacV12) on the other hand. For this latter experiment, fifty percent confluent NIH3T3 cells in a 10 cm diameter petri dish were transfected with 0.5 μg pSV2-RasV12 or 0.5 μg pEXV RacV12 plasmids plus 100 ng of pSV2-neomycin plasmid using Lipofectamine-Plus reagent (Invitrogen) according to the manufacturer's instructions. Forty-eight hours later, cells were trypsinised, splitted to ⅓, and incubated in the presence of complete medium supplemented with 400 μg/ml geneticin (Invitrogen) and different doses of compound (1, 10, 17.5, 25 and 50 μM) until emerging resistant clones appear (2-3 weeks). The medium was renewed every 3 days. Colonies with a minimum of 50 cells were counted after staining with Fuschin 2%.

The next series has as its system cell architecture. Put plainly: Cell architecture modification, phase contrast. Format: cell-based. Further details: key: −: no effect of the compound was observed; +: an effect of the compound was observed.
For another series, the system named is MRC-5. Put plainly: Cytotoxicity assay (MTT), 6 days. Format: cell-based. As to conditions: Homo sapiens, MRC5, 144 h, 6 days of treatment, read-out: Toxicity 6d (IC 50, μM) MRC-5.
Description: as §1

Series [3] concerns MDA-MB-231 cells. Put plainly: Matrigel invasion assay (Boyden chamber). In kind it is cell-based, human. The note with it: MDA-MB-231, Boyden chamber, matrigel. The procedure: Chemoinvasion assay was performed in Boyden chamber as described by Albini et al (Cancer Res, 1987) with some modifications. Polycarbonate membranes with 8 μm pores were coated with matrigel (125 μg/cm^2) at room temperature for 48 h. Two hours before experiments, the matrix was […] with serum-free medium containing 0.1% BSA.
(§3) One day after seeding, 10^6 MDA-MB-231 cells were treated overnight with different concentrations of compounds (1, 10, 17.5, 25 and 50 μM). Cells were collected with Versene (Invitrogen), counted with trypan blue exclusion, rinsed twice in serum-free medium containing 0.1% BSA and resuspended in serum-free medium containing 0.1% BSA plus the appropriate concentration of compound. 10^5 treated cells were placed in the upper chamber. Medium containing 10% of FBS plus the appropriate concentration of compound was placed in the lower chamber as a chemoattractant. The Boyden chamber was incubated 6 hours at 37° C. before the cells were fixed and stained with Diff-Quick (Dade-Berhing). Cells on the upper part of the filters were removed using a cotton swab. Cells on the underside of the filters were visualised and counted under light microscope.

Another series deals with NIH3T3 cells. Put plainly: Colony formation assay with constitutively activated Ras (RasV12) and Rac (RacV12). Format: cell-based, mouse. Further details: key to Colony formation: −: no effect of the compound was observed; +: an effect of the compound was observed. The procedure:
as §2

The subject of series [4] is MDA-MB-231 cells. Kind of series: Migration assay (Boyden chamber, non-coated filters). Format: cell-based, human. As to conditions: MDA-MB-231, Boyden chamber. As to the method:
as §3
The migration assay was performed the same way, using non-coated filters.

A further series deals with NIH3T3. Kind of series: Cytoskeleton analysis, actin staining (FITC-phalloidin). Format: cell-based, mouse. As to the method: Since major rearrangements of cytoskeleton are observed in tumor cells and since the small GTPases are known to regulate these events, analysis of actin cytoskeleton was performed. Subconfluent cells seeded onto coverslips were treated with different concentration of compound (1, 10, 17.5, 25 and 50 μM) or vehicle for 24 h, before being fixed in 4% formaldehyde for 15 min., permeabilized in 0.2% Triton X100 for 5 minutes and incubated in PowerBlock (Biogenex) for 10 min. Actin filaments were stained with 0.5 μg/ml fluorescein isothiocyanate (FITC)-labelled phalloidin for 1 hour. Analysis was performed using an inverted fluorescent microscope.

As to `C/C=C/c1oc(CO)cc(=O)c1OCCCCCOc1ccc(Cl)c(Cl)c1` [EH30101], the IC50 is 35 µM with H460 lung carcinoma; 45 µM in the series with MCF-7 breast carcinoma; 30 to 35 µM in series [1]; 0.1 to 0.5 µM in the series with NIH3T3 mouse fibroblasts; 50 µM in series [2] (Homo sapiens, HCT-116, 144 h); 7.5 µM in the series on HCT116 cells.
In the case of `O=C(NCc1ccccc1)c1cc(=O)c(OCCCCCOc2ccc(Cl)cc2)co1` [EH28900, N-Benzyl-5-[5-(4-Chlorophenyloxy)pentyloxy]-4-oxo-4H-pyran-2-carboxamide], the IC50 with H460 lung carcinoma amounted to 10 µM; in the series on MCF-7 breast carcinoma, 20 µM; in the series on MCF10-A it was 50 µM; in series [1], 5 µM; in the series with NIH3T3 mouse fibroblasts, 0.5 µM; in series [2], 25 µM. Also, the IC50 in series [2] (Homo sapiens, HCT-116, 144 h) is at most 15 µM. Further, the “Small GTPases activities Ras” value with Ras is recorded as “−”. Moreover, in the series on cell architecture, the “Cell architecture modification phase contrast” value is listed as “−”.
Turning to `C/C=C/c1oc(CO)cc(=O)c1OCCCCCOc1ccc(Cl)cc1` [EH26101, (E)-3-[5-(4-Chlorophenyloxy)pentyloxy]-6-(hydroxymethyl)-2(propen-1-yl)-4H-pyran-4-one], the IC50 is 35 µM in the series with H460 lung carcinoma; over 50 µM in the series with MCF-7 breast carcinoma; 40 to 45 µM in [1]; 1 to 5 µM in the series on NIH3T3 mouse fibroblasts; over 50 µM in series [2] (Homo sapiens, HCT-116, 144 h); 50 µM with HCT116 cells.
Consider `C/C=C/c1oc(CO)cc(=O)c1OCCCCCOc1ccccc1CCC` [EH9301, (E)-6-(Hydroxymethyl)-2-(propen-1-yl)-3-[5-(2-propylphenyloxy)pentyloxy]-4H-pyran-4-one], for which the IC50 in the series with H460 lung carcinoma is 25 µM; with MCF-7 breast carcinoma, 20 µM; with MCF10-A it was over 50 µM; in series [1], 25 µM; in the series on MRC-5 it was 35 µM; in the series with NIH3T3 mouse fibroblasts it was 50 µM. Further, in series [2] (Homo sapiens, HCT-116, 144 h), the IC50 stood at 20 µM. Further, the Invasion result with MDA-MB-231 cells [3] is reported as “No effect”. Also, the Colony formation result in the series with NIH3T3 cells is listed as “−”. In addition, in the series on cell architecture, the “Cell architecture modification phase contrast” value was “−”. In addition, the Migration entry with MDA-MB-231 cells [4] was “no effect”.
`O=c1cc(CO)occ1OCCCCCOc1ccc(Cl)cc1` [EH15500, 5-[5-(4-Chlorophenyloxy)pentyloxy]-2-(hydroxymethyl)-4H-pyran-4-one]: the melting point was in the range of 95 to 97 °C. In addition, the IC50 in the series on H460 lung carcinoma worked out at 35 µM. For the same compound, in the series with MCF-7 breast carcinoma, the IC50 was over 50 µM. Further, in series [1], the IC50 was 15 µM. For the same compound, the IC50 in series [2] (Homo sapiens, HCT-116, 144 h) came to 50 µM. Also, the “Small GTPases activities Ras” value in the series on Ras is given as “−”. For the same compound, in the series with NIH3T3 cells, the Colony formation result is recorded as “−”. In the series with cell architecture, the “Cell architecture modification phase contrast” value is “+”. Further, the “general morphology of NIH3T3 cells, as detected by β-actin staining” value with NIH3T3 is given as “affected”. Besides, in the series with NIH3T3 (24 h treatment), the “Cell architecture modification actin staining (R: ruffles; FC: focal complexes) NIH3T3” value was “cell destructuration”.
`C/C=C/c1oc(CO)cc(=O)c1OCCCCCOc1cccc(Cl)c1` [EH16201, (E)-3-[5-(3-Chlorophenyloxy)pentyloxy]-6-(hydroxymethyl)-2-(propen-1-yl)-4H-pyran-4-one]: the IC50 was 20 µM with H460 lung carcinoma; 25 µM in the series with MCF-7 breast carcinoma; over 50 µM in [1]; 25 µM in the series with NIH3T3 mouse fibroblasts; 50 µM in series [2] (Homo sapiens, HCT-116, 144 h); 12.5 µM with HCT116 cells.
